# Source: patent publication US20260276634A1, “METHOD FOR DETERMINING INTESTINAL PERMEABILITY” (BIOMEDAL, SL, priority 2023, published 2026)
# Conditions: human, in vivo
# Protocol: Specifically, subjects (n=15) received 8 g of gluten after at least 8 hours of fasting, following a gluten-free diet for at least 36 hours in individuals without diagnosed celiac disease. The gluten consisted of gluten powder with flavorings (sweeteners and food colorings) contained in single-use heat-sealed sachets. At the same time, volunteers took 1 g of mannitol and 10 g of lactulose. Subsequently, the various urines were collected in separate containers, to be able to perform individualized measurements of the concentration in each void, as well as the total volume of the urines. The amount of gluten peptides present in urine excreted for 15 hours following gluten intake was determined using the iVYCHECK urine product and a calibrated lateral flow strip reader iVYCHECK Reader (Biomedal, Spain). […]
# In this example conducted with 15 volunteers without symptoms of diagnosed digestive disease, basal urine is analyzed. […] The concentrations of GIP in the excreted urines were measured, both by ELISA and LFIA between 0-6 h after intake and between 2-15 h after intake individually. The GIP concentration of each urine of each volunteer (FIG. 4) and lactulose (FIG. 5) were measured, and subsequently, the % excreted relative to the ingested GIP and the lactulose/mannitol ratio (FIG. 6) were calculated. The correlation between lactulose: mannitol and GIP was determined. […]
Compound,time over which lactulose excretion occurs,share of detectable gluten excreted in the first 9 to 15 hours
OC[C@H]1O[C@@H](O[C@@H]2[C@@H](CO)OC(O)(CO)[C@H]2O)[C@H](O)[C@@H](O)[C@H]1O (mixture of isomers) [lactulose],> 15 h,–
gluten,–,> 80%
